Patent publication US20220142995A1, “DUAL ATM AND DNA-PK INHIBITORS FOR USE IN ANTI-TUMOR THERAPY” (XRAD Therapeutics, Inc., priority 2019, published 2022)

Columns and labels:
[1] = tested on: pDNA-PK/DNA-PK in MDA-231 tumors; assay: Pharmacodynamic assay, pDNA-PK/DNA-PK in MDA-231 tumors; type: in vivo, mice
Description: (§1) Tumor Studies. Female NCr nu/nu mice (Crl:NU(NCr)-Foxn1 nu, Strain 490) were obtained from Charles River at 5-6 weeks of age. All animal procedures used in these studies were approved by the Institutional Animal Care and Use Committee (IACUC) at Duke University.
(§2) FADU or MDA-MB-231 cells were harvested during log phase growth for in vivo implantation. The resuspended cells were washed three times in phosphate buffered saline (PBS) before preparing the working dilution in PBS. FADU cells were diluted to 1×10^7 cells/mL and MDA-MB-231 cells were diluted to 5×10^7 cells/mL. Each mouse was injected subcutaneously in the right flank with 100 μL of the cellular suspension. Tumor growth was monitored until the tumors reached a target volume of at least 100 mm^3, at which point mice were randomly stratified into four treatment groups.
(§3) The vehicle used in this study was 0.5% (Hydroxypropyl)methyl cellulose (HPMC) and 0.2% Tween80 dissolved in deionized water. The pH of the vehicle was adjusted to 7.0-8.0 and the vehicle was stored at 4° C. On each day of in vivo treatment an appropriate mass of test compound was added to the vehicle at room temperature. The mixture was vortexed as necessary to generate a final concentration of 1.6 mg/mL.
(§4) Pharmacodynamic (PD) assays. Tumor studies were performed as follows. Mice bearing FADU or MDA-231 tumors were pre-dosed with vehicle alone or compound 569 alone at 3, 6, and 10 mg/kg. Tumors were then irradiated with 10 Gy 45 min after vehicle or compound 569 administration or left unirradiated (vehicle and compound 569 at 10 mg/kg). Tumors were harvested 1 h post radiation.
(§5) Tissue homogenates for pharmacodynamic analyses were collected and processed as follows. Tumor tissues from FADU or MDA-MB-231 tumors were flash frozen in liquid nitrogen and pulverized on dry ice using a tissue pulverizer. A portion of the tumor powder was transferred into a microtube, followed by addition of 500 μL of RIPA buffer [[…], pH 8.0, 150 mM NaCl, 0.1% SDS, 0.5% sodium deoxycholate, 1% IGEPAL® CA-630 (Sigma, 18896)]. To 10 ml of RIPA buffer, 2 tablets each of Protease inhibitor and Phosphatase inhibitor (Roche, #04693159001 & #04906837001), 200 μL of 0.1 M PMSF and 160 μL of Aprotinin, (Sigma, A6279) were added. The suspension was homogenized on ice with a pellet pestle motor (KONTES) and incubated on ice for 30 minutes. Cell lysates were centrifuged at 13,200 rpm for 15 min at 4° C. and supernatants were transferred to a new tube and analyzed for protein concentration with a BCA kit (Pierce, 23227), followed by immunoblotting.

[2] = tested on: pDNA-PK/DNA-PK in FADU tumors; assay: Pharmacodynamic assay, pDNA-PK/DNA-PK in FADU tumors; type: in vivo, mice; conditions: for pDNA-PK/DNA-PK: FADU tumors
Description: as §1, §2, §3, §4, §5

MCF7 cells = assay: Clonogenic survival assay in MCF7 cells with or without radiation; type: cell-based, human; conditions: for Fold 2 Gy / Fold 4 Gy: relative to DMSO
Experimental: Cell Culture. The MCF-7 human breast carcinoma cell line and HCT116 p53 wild-type and HCT116 p53−/− cell lines were obtained from ATCC. MCF7 and HCT116 cells were cultured in Dulbecco's modified Eagle's medium (DMEM (Gibco #11995-065). MDA-MB-231 human triple negative breast cancer cell line and FADU, human head and neck squamous cell carcinoma line, were obtained from Charles River Laboratories (Morrisville, N.C.). MDA-MB-231 cells were cultured in RPMI 1640 medium (Gibco, 11875-093). FADU cells were cultured in Minimum Essential Medium a (MEM a) (Gibco, 12571-063) supplemented with 1 mM Sodium Pyruvate (Gibco, 11360-070), 1×MEM Non-Essential Amino Acids (Gibco, 11140-050). All cell lines were supplemented with 10% fetal bovine serum (FBS) (Corning, 35-010-CV) and 1× Anti biotic-Anti mycotic (Gibco #15240-062) and were grown at […]. All cell lines were authenticated by short tandem repeat profiling and tested negative for mycoplasma.
Clonogenic survival assay. This assay was performed with compound 569. Cells were plated in 6-well plates at different densities: 250 cells for no IR control, 5000 cells for 2 Gy of IR and 10000 cells for 4 Gy of IR and cultured overnight. The next day, cells were preincubated with compound 569 at 100, 250, 500, or 1000 nM or DMSO for 30 min before being exposed to increasing doses of IR (0, 2, or 4 Gy). After IR, cells were continuously incubated with DMSO or compound 569 for 5 h before the culture medium was removed and cells were washed with PBS. Cells were cultured in complete medium in the absence of inhibitor for 9 days. Then cells were stained (PBS, 0.0037% v/v formaldehyde, 0,1% crystal violet) rinsed with water and dried.

[3] = 10 Gy, 3 mg/kg oral, harvested 1 h post radiation
[4] = 10 Gy, 6 mg/kg oral, harvested 1 h post radiation
[5] = 10 Gy, 10 mg/kg oral, harvested 1 h post radiation

CC(C)NCCOc1ncc(-c2cc3c4c(cnc3cc2F)N(C)C(=O)C42CCC2)cc1NS(C)(=O)=O [Compound 569, N-(5-(7′-Fluoro-3′-methyl-2′-oxo-2′,3′-dihydrospiro[cyclobutane-1,1′-pyrrolo[2,3-c]quinolin]-8′-yl)-2-(2-(isopropylamino)ethoxy)pyridin-3-yl)methanesulfonamide]
pDNA-PK/DNA-PK [1, 3]: 0.889
pDNA-PK/DNA-PK [1, 4]: 0.670
pDNA-PK/DNA-PK [1, 5]: 0.454
pDNA-PK/DNA-PK ([1]; no radiation, 10 mg/kg oral): 0.223
inhibition of radiation-induced DNA-PK autophosphorylation and KAP1 phosphorylation in tumors ([2]; FADU and MDA231 tumors, 10 Gy, 3, 6 and 10 mg/kg oral): dose-dependent inhibition
pDNA-PK/DNA-PK [2, 3]: 0.938
pDNA-PK/DNA-PK [2, 4]: 0.658
pDNA-PK/DNA-PK [2, 5]: 0.476
pDNA-PK/DNA-PK ([2]; no radiation, 10 mg/kg oral): 0.343
inhibition at 10 mg/kg ([2]; Mus musculus, FADU and MDA231 tumors (FIGS. 4 and 5, Tables 2-5), 10 Gy, 10 mg/kg, read-out: inhibition of tumor levels of radiation-induced autophosphorylation of DNA-PK): ~55%
basal phosphorylation of DNA-PK in tumors ([2]; unirradiated tumors, 10 mg/kg): inhibited
Fold 2 Gy (MCF7 cells; 100 nM): 7.5
Fold 4 Gy (MCF7 cells; 100 nM): 21.8
Fold 2 Gy (MCF7 cells; 250 nM): 10.8
Fold 4 Gy (MCF7 cells; 250 nM): 54.0
Fold 2 Gy (MCF7 cells; 500 nM): 14.7
Fold 4 Gy (MCF7 cells; 500 nM): 91.5
Fold 2 Gy (MCF7 cells; 1000 nM): 22.0
Fold 4 Gy (MCF7 cells; 1000 nM): 198
radiosensitization (MCF7 cells; 5-h exposure, 100-1000 nM, IR 0, 2, 4 Gy): significant degree of radiosensitization
cellular toxicity in the absence of IR (MCF7 cells; 5-h exposure, 100-1000 nM, no IR): without evidence of cellular toxicity
